Tests used:
[1] = tested on: low density lipoprotein (LDL); details: literature report; cited from earlier work
isolated LDL [2] = assay: Dienes analysis of copper-mediated oxidation of isolated LDL; parameters: species or system New Zealand white rabbits; details: 0.1 mg/ml LDL from APAP-fed rabbits, 5 μM CuSO4, 37° C., 6 hour period, FIG. 1
Method: LDL Isolation: Plasma LDL was prepared by ultracentrifuation of a blood sample as disclosed in Havel, “The Distribution and Chemical Composition of Ultracentrifugally Separated Lpoproteins in Human Serum,” 34 JI. Clin. Inv. 1345 […], within a density cutoff of 1.020 g/ml to 1.055 g/ml and with the addition of 0.5 mg/ml ethylenediaminetetracetic acid ('EDTA') thereto. After adding a sample of this mixture to a semi-permable bag, the LDL was dialyzed therefrom against a vacuum-degassed 0.01 M Tris solution containing 0.15 M NaCl and 0.1 mg/ml EDTA under dark conditions and at 4° C. for 48 hours, followed by dialysis overnight using the same equipment but with a 0.01M phosphate buffer solution containing 0.15 M NaCl and no EDTA. The dialyzed LDL protein concentrations were then determined via the method set forth in Lowry, 'Protein Measurement with the Folin Phenol Reagent,' 226 J. Biol. Chem. 497-509 (1951). […] Analysis: The kinetics of these copper-mediated oxidation reactions were followed at 10 minute intervals for a total period of 6 hours by monitoring changes in absorbance at 234 nm of each mixture using a Model UV-2101PC spectrophotometer available from Shimadzu. […]

oxysterols in LDL = assay: Oxysterol concentrations in LDL isolated from cholesterol-fed rabbits; type: in vivo, New Zealand white rabbits
Method: LDL Isolation: Plasma LDL was prepared by ultracentrifuation of a blood sample as disclosed in Havel, “The Distribution and Chemical Composition of Ultracentrifugally Separated Lpoproteins in Human Serum,” 34 JI. Clin. Inv. 1345 […], within a density cutoff of 1.020 g/ml to 1.055 g/ml and with the addition of 0.5 mg/ml ethylenediaminetetracetic acid (‘EDTA’) thereto. After adding a sample of this mixture to a semi-permable bag, the LDL was dialyzed therefrom against a vacuum-degassed 0.01 M Tris solution containing 0.15 M NaCl and 0.1 mg/ml EDTA under dark conditions and at 4° C. for 48 hours, followed by dialysis overnight using the same equipment but with a 0.01M phosphate buffer solution containing 0.15 M NaCl and no EDTA. The dialyzed LDL protein concentrations were then determined via the method set forth in Lowry, ‘Protein Measurement with the Folin Phenol Reagent,’ 226 J. Biol. Chem. 497-509 (1951).
(§1) Twenty-three, six-week old male New Zealand white rabbits obtained from Myrtle's Rabbitry (Houston, Tex.) and weighing between about 1.8 kg and 2 kg were separated into two groups: Group 1 (experimental) having 12 rabbit/group and Group 2 (control) having 11 rabbits/group. At the beginning of the study, all rabbits were allowed water ad libitum and ate normal rabbit chow.
After a two week acclimatization period, all of the rabbits were then placed on normal rabbit chow supplemented with 1% cholesterol (ICN Biochemicals, Inc., Costa Mesa, Calif.), in order to induce fatty streak formation in their blood vessel walls. Rabbits in Group 1 were switched from water to an acetaminophen solution for about a 40 mg/kgrabbit APAP dose. A 40 mg/kg dose of APAP in a 2.5 kg rabbit is equivalent to about a 2800 mg/day dose in a 70 kg human. The other group of rabbits remained on water for the remainder of the study. The cages were monitored daily in order to assure that each rabbit consumed the contents of his respective water bottle.
Oxo-sterol concentrations in the isolated LDL were also determined by the method set forth in Hughes, et. al., “Cytotoxicity of Oxidized LDL to Porcine Aortic Smooth Muscle Cells Is Associated with the Oxysterols 7-ketocholesterol and 7-hydrocholesterol,” 14(7) Arterioscler. Thromb. 1177-85 (1994). In general, the oxysterols were initially separated from the LDL via a Bligh and Dyer extraction followed by extraction using amino-propyl solid phase extraction columns available from Varian Instruments in order to further separate the lipids by polarity. The oxysterol-containing eluents were then dried therefrom under a nitrogen atmosphere and derivatized with N,O-bis(trimethylsilyl)trifluooroacetamide) (“BSTFA”) in a test tube. 10 μl of cholestane was added to the dried eluent at the time of derivatization as an internal standard. The derivatized samples were then analyzed using a gas chromatograph column having a flame ionization detector .The column program included initial temperature of 250° C. for 2 minutes, followed by temperature increases of 8° C./minute to 325° C., and then a final 8 minute temperature hold at 325° C. The amount of oxysterols in the LDL were then quantitated using known standards by ratio of the peak area of the oxysterol to cholestane. The concentrations of oxysterols are set forth below in Table B: […]

[3] = Total plasma cholesterol levels in cholesterol-fed rabbits; type: in vivo, New Zealand white rabbits
From the text: Twenty-three, six-week old male New Zealand white rabbits obtained from Myrtle's Rabbitry (Houston, Tex.) and weighing between about 1.8 kg and 2 kg were separated into two groups: Group 1 (experimental) having 12 rabbit/group and Group 2 (control) having 11 rabbits/group. At the beginning of the study, all rabbits were allowed water ad libitum and ate normal rabbit chow. After a two week acclimatization period, all of the rabbits were then placed on normal rabbit chow supplemented with 1% cholesterol (ICN Biochemicals, Inc., Costa Mesa, Calif.), in order to induce fatty streak formation in their blood vessel walls. Rabbits in Group 1 were switched from water to an acetaminophen solution for about a 40 mg/kgrabbit APAP dose. A 40 mg/kg dose of APAP in a 2.5 kg rabbit is equivalent to about a 2800 mg/day dose in a 70 kg human. The other group of rabbits remained on water for the remainder of the study. The cages were monitored daily in order to assure that each rabbit consumed the contents of his respective water bottle. After cannulating the femoral artery and advancing into the distal aorta region of each rabbit, blood was aspirated therefrom for isolation of LDL fraction. The blood of each rabbit was drawn into 1000 U of Heparin sodium in order to prevent coagulation, then the plasma was separated therefrom via centrifugation at 2000 rpm for ten minutes. […]

isolated LDL [4] = assay: TBARS analysis of copper-mediated oxidation of isolated LDL; parameters: species or system New Zealand white rabbits; details: 0.1 mg/ml LDL from APAP-fed rabbits, 5 μM CuSO4, 37° C., 4, 8 and 12 hours
Method: LDL Isolation: Plasma LDL was prepared by ultracentrifuation of a blood sample as disclosed in Havel, “The Distribution and Chemical Composition of Ultracentrifugally Separated Lpoproteins in Human Serum,” 34 JI. Clin. Inv. 1345 […], within a density cutoff of 1.020 g/ml to 1.055 g/ml and with the addition of 0.5 mg/ml ethylenediaminetetracetic acid (‘EDTA’) thereto. After adding a sample of this mixture to a semi-permable bag, the LDL was dialyzed therefrom against a vacuum-degassed 0.01 M Tris solution containing 0.15 M NaCl and 0.1 mg/ml EDTA under dark conditions and at 4° C. for 48 hours, followed by dialysis overnight using the same equipment but with a 0.01M phosphate buffer solution containing 0.15 M NaCl and no EDTA. The dialyzed LDL protein concentrations were then determined via the method set forth in Lowry, ‘Protein Measurement with the Folin Phenol Reagent,’ 226 J. Biol. Chem. 497-509 (1951). […] The concentrations of thiobarbituric acid reactive substances (“TBARS”) in each mixture were then measured with the same spectrophotometer as described by Streinbrecher, et al., “Decrease in reactive amino groups during oxidation or endothelial cell modification of LDL,” Arteriosclerosis 1987;7:135-143.

[5] = tested on: fatty streaks in the blood vessels of rabbits; assay: Fatty streak formation in aorta of cholesterol-fed rabbits; type: in vivo, New Zealand white rabbits; details: rabbits on 1% cholesterol chow, 12 weeks
From the text: This investigation used an experimental system in which fatty streaks are induced in the blood vessels of rabbits by incorporation of 1 % cholesterol in their food. For further detail, see A. A. Taylor and C. V. Smith, Circulation 18 I-697 (1999). Similar experimental systems have been used previously for the evaluation of the efficacy of pharmaceutical compounds for treating, preventing, and regressing atherosclerosis. For example, see Daugherty, A., et al., “Probucol Attentuates the Development of Aortic Atherosclerosis in Cholesterol-Fed Rabbits,” 98(2) Br. J. Pharm. 612-18 (1989), which is incorporated by reference herein.
as §1
After a two week acclimatization period, all of the rabbits were then placed on normal rabbit chow supplemented with 1% cholesterol (ICN Biochemicals, Inc., Costa Mesa, Calif.), in order to induce fatty streak formation in their blood vessel walls. […] The cages were monitored daily in order to assure that each rabbit consumed the contents of his respective water bottle. […]

[6] = APAP-fed versus control rabbits

## CC(=O)Nc1ccc(O)cc1 [APAP, N-(4-hydroxyphenyl) acetamide]
[1]
  LDL lipid oxidation in vitro: prevent low density lipoprotein (“LDL”) lipid oxidation in vitro
Isolated LDL [2]
  Absorbance at 234 nm of isolated LDL (dienes) versus control: lower absorbance values
Oxysterols in LDL; APAP-fed rabbits, 1% cholesterol chow, 12 weeks, control 0.24 + 0.05
  Average 5b, 6b-epoxide concentration in LDL: 0.12 + 0.13 nmol/mg LDL
Oxysterols in LDL; APAP-fed rabbits, 1% cholesterol chow, 12 weeks, control 0.49 + 0.08
  Average 5a, 6a-epoxide concentration in LDL: 0.11 + 0.05 nmol/mg LDL
Oxysterols in LDL; APAP-fed rabbits, 1% cholesterol chow, 12 weeks, control 1.01 + 0.26
  Average 7bOH-cholesterol concentration in LDL: 0.32 + 0.07 nmol/mg LDL
Oxysterols in LDL; APAP-fed rabbits, 1% cholesterol chow, 12 weeks, control 2.31 + 0.62
  Average 7aOH-cholesterol concentration in LDL: 0.58 + 0.12 nmol/mg LDL
Oxysterols in LDL; APAP-fed rabbits, 1% cholesterol chow, 12 weeks, control 3.86 + 1.72
  Average 7keto-cholesterol concentration in LDL: 0.41 + 0.14 nmol/mg LDL
Oxysterols in LDL; [6]
  Decrease in 7-alpha hydroxycholesterol values: 4 fold
  Decrease in 7-beta hydroxycholesterol values: 3 fold
  Decrease in 7-keto cholesterol values: 9 fold
[3]; APAP-fed rabbits, 1% cholesterol chow, 12 weeks, control 1441 ± 87
  Average Circulating total Plasma Cholesterol Level: 1592 ± 43 mg/dL
[3]; [6]
  Amount of circulating cholesterol in the blood plasma versus control: did not produce a significant difference
Isolated LDL [4]
  TBARS formed during the LDL oxidation versus control: comparable
[5]; about 40 mg/kg APAP in drinking water, control 0.58 + 0.06
  Average Fatty Streak/Total Aortic Area: 0.32 + 0.05
[5]; about 40 mg/kg APAP, p<0.001
  Aortic fatty streak areas versus control: significantly reduced aortic fatty streak areas
